Legend:
[1] = test system: follicular lymphoma; conditions: double-refractory cases; Salles et al., Haematologica 2017; cited from earlier work
[2] = test system: T cells; test: T-cell activation with immobilized anti-CD3 in the presence of lenalidomide; format: cell-based; conditions: lenalidomide 5 or 50 μM with CD3 crosslinking, 3 days, vs no lenalidomide
Description: T cells were pre-incubated with assay medium or lenalidomide in the absence or presence of CD3 crosslinking by immobilized anti-CD3 for 3 days (as indicated on the x-axes), after which upregulation of CD69, CD25, PD-1 and LAMP-1 on CD4^+ and CD8^+ T cells was determined by flow cytometry. Data shown are geomean fluorescence intensities (FI) for four donors (each circle represents one condition for one donor). Pre-incubation conditions are shown on the x-axis.
(§1) Briefly, T cells were activated with immobilized anti-CD3 in the presence (5 or 50 μM) or absence of lenalidomide for 3 days. […] T cells that were activated in the presence or absence of lenalidomide were subsequently tested for their cytotoxic capacity in response to epcoritamab.

[3] = biological target: T1, CD20 (Homo sapiens, UniProt P11836); conditions: rituximab versus IgG1-CD20; different epitopes; cited from earlier work
T1 sequence (P11836 1-297): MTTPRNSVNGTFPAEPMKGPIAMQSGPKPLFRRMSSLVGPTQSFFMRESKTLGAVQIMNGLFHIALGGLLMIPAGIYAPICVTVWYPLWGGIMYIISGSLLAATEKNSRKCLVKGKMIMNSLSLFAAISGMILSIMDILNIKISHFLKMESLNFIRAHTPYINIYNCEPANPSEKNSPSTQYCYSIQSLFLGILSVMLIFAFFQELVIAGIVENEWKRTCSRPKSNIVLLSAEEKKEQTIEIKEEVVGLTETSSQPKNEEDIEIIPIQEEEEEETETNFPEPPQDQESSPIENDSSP

[4] = test system: CD20-expressing Raji-luc tumor cells; conditions: NOD-SCID mice with Raji-luc cells and PBMCs; even with excess IgG1-RTX-FEAR; cited from earlier work
[5] = test system: CD20-expressing Daudi cells; test: T-cell-mediated cytotoxicity assay with lenalidomide-pre-treated T cells; format: cell-based; conditions: T cells pre-treated with lenalidomide and anti-CD3; E:T ratio 2:1
Description: T cells were incubated with (5 or 50 μM) or without lenalidomide in the absence or presence of immobilized anti-CD3 for 3 days. T cells were then used in a cytotoxicity assay with DuoBody-CD3×CD20 or DuoBody-CD3×ctrl (containing a CD3 arm and a non-binding control arm) and CD20-expressing Daudi cells as target cells (E:T ratio 2:1). Data shown are average percentages cytotoxicity±SD of duplicates, normalized to medium control (no antibody, no lenalidomide).
as §1

[6] = test system: primary DLBCL and follicular lymphoma patient biopsies; conditions: biopsies taken after administration of an anti-CD20 antibody; cited from earlier work

CC[C@H](Nc1ncnc2[nH]cnc12)c1nc2cccc(F)c2c(=O)n1-c1ccccc1 [idelalisib]
1-year PFS [1]: 43%

Nc1cccc2c1CN(C1CCC(=O)NC1=O)C2=O (stereo not shown) [lenalidomide, 3-(4-Amino-1-oxo-1,3-dihydro-2H-isoindol-2-yl) piperidine-2,6-dione]
T-cell activation (upregulation of CD69, CD25; release of granzyme B and IFNγ) [2]: increased T-cell activation

IgG1-CD20: CD20 antibody of which the CD20 arm of epcoritamab is derived (7D8)
Competition for CD20 binding [3]: compete for CD20 binding

epcoritamab: IgG1 bispecific CD3×CD20 antibody; heavy/light chain pairs SEQ ID NOs: 24/25 and 26/27; CAS 2134641-34-0
Tumor growth in xenograft model [4]: effectively reduce tumor growth | Activity at lower epcoritamab concentrations [5]: higher activity at lower epcoritamab concentrations | Maximum percent cytotoxicity [5]: Higher maximum percent cytotoxicity | T-cell-mediated cytotoxicity in patient biopsies [6]: induced T-cell-mediated cytotoxicity
